Reference: PubChem BioAssay (NCI)
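Cells were grown in 96-well plates and exposed to each compound for 48 hours at five concentrations; endpoints were interpolated linearly between bracketing concentrations, or set to the highest concentration if not reached. TGI denotes the concentration required for complete inhibition of growth.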

Columns and labels:
Assay in all cases: DTP human tumour cell line panel, 48 h
[1] = test system: SK-MEL-5 melanoma
[2] = test system: NCI-H460 lung
[3] = test system: HS 578T breast
[4] = test system: SNB-75 CNS
[5] = test system: EKVX NSCLC
[6] = test system: HL-60(TB) leukemia
[7] = test system: MOLT-4 leukemia
[8] = test system: COLO 205 colon
[9] = test system: SK-MEL-2 melanoma
[10] = test system: UACC-62 melanoma
[11] = test system: U251 CNS
[12] = test system: NCI-H23 lung
[13] = test system: OVCAR-8 ovarian
[14] = test system: UACC-257 melanoma
[15] = test system: MDA-MB-231 breast
[16] = test system: K-562 leukemia
[17] = test system: TK-10 renal
[18] = test system: RXF 393 renal
[19] = test system: HCT-116 colon
[20] = test system: HT29 colon
[21] = test system: OVCAR-4 ovarian
[22] = test system: NCI/ADR-RES ovarian
[23] = test system: SF-295 CNS
[24] = test system: 786-0 renal
[25] = test system: SW-620 colon
[26] = test system: HCC-2998 colon
[27] = test system: MDA-N
[28] = test system: MDA-MB-435
[29] = test system: HOP-62 NSCLC
[30] = test system: IGROV1 ovarian
[31] = test system: NCI-H522 lung
[32] = test system: PC-3 prostate
[33] = test system: MCF7 breast
[34] = test system: KM12 colon
[35] = test system: ACHN renal
[36] = test system: A549 NSCLC
[37] = test system: LOX IMVI melanoma
[38] = test system: OVCAR-5 ovarian
[39] = test system: NCI-H226 lung
[40] = test system: BT-549 breast
[41] = test system: OVCAR-3 ovarian
[42] = test system: CCRF-CEM leukemia
[43] = test system: CAKI-1 renal
[44] = test system: RPMI-8226 leukemia
[45] = test system: SN12C renal
[46] = test system: DU-145 prostate
[47] = test system: UO-31 renal
[48] = test system: M14 melanoma
[49] = test system: HCT-15 colon
[50] = test system: MALME-3M melanoma
[51] = test system: SK-OV-3 ovarian
[52] = test system: SK-MEL-28 melanoma
[53] = test system: SNB-19 CNS
[54] = test system: SR leukemia
[55] = test system: SF-268 CNS
[56] = test system: SF-539 CNS
[57] = test system: HOP-92 NSCLC
[58] = test system: A498 renal

Measured: TGI

C=CCN(C(=O)OC(C)(C)C)C1=CC2C(C)=CN(S(=O)(=O)c3ccccc3)C2C(OCc2ccccc2)=C1 (configuration not stated)
not listed: [53] | [54] | [55] | [56] | [57] | [58]
> 100 µM: all other assays above

Cc1ccc(N(C)S(=O)(=O)c2ccc([N+](=O)[O-])cc2)cc1
not listed: [1] | [12] | [57] | [58]
> 100 µM: all other assays above

NC(CSC(=O)c1ccccc1)C(=O)O (configuration not stated)
not listed: [16] | [26]
> 100 µM: all other assays above
